Data as given in patent US9833497B2, “Human originated EGF domain proteins and use of the same” (CHENGDU SOURCEBIO LIMITED-LIABILITY COMPANY, priority 2013, dated 2017).

What was measured:
Assay type in all cases: cell-based
[1] = test system: Proteus vulgaris; assay: MIC against Gram-negative bacteria: Proteus vulgaris; settings: for MIC (μg/mL) P. vulgaris / MIC P. vulgaris: 5×10^5 CFU/mL
How it was run: (§1)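 Growth inhibition by human EGF domain proteins was scored in LB liquid culture seeded at 5×10^5 CFU/mL. Protein was applied as a two-fold dilution series in triplicate, with shaking incubation at 37° C; MIC is the lowest concentration giving no growth.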

[2] = test system: Serratia marcescens; assay: MIC against Gram-negative bacteria: Serratia marcescens; settings: for MIC (μg/mL) S. marcescens / MIC S. marcescens: 5×10^5 CFU/mL
How it was run: as §1

[3] = test system: E. coli BL21; assay: MIC against Gram-negative bacteria: E. coli BL21; settings: for MIC (μg/mL) E. coli BL21 / MIC E. coli BL21: 5×10^5 CFU/mL
How it was run: as §1

[4] = test system: Aeromonas hydrophila; assay: MIC against Gram-negative bacteria: Aeromonas hydrophila; settings: for MIC (μg/mL) A. hydrophila / MIC A. hydrophila: 5×10^5 CFU/mL
How it was run: as §1

[5] = test system: Moraxella catarrhalis; assay: MIC against Gram-negative bacteria: Moraxella catarrhalis; settings: for MIC (μg/mL) M. catarrhalis / MIC M. catarrhalis: 5×10^5 CFU/mL
How it was run: as §1

[6] = test system: Enterobacter cloacae; assay: MIC against Gram-negative bacteria: Enterobacter cloacae; settings: for MIC (μg/mL) E. cloacae / MIC E. cloacae: 5×10^5 CFU/mL
How it was run: as §1

[7] = test system: Proteus mirabilis; assay: MIC against Gram-negative bacteria: Proteus mirabilis; settings: for MIC (μg/mL) P. mirabilis / MIC P. mirabilis: 5×10^5 CFU/mL
How it was run: as §1

[8] = test system: E. coli DH5α; assay: Antibacterial activity: MIC and growth curve against E. coli DH5α in 96-well plate; settings: minimal inhibitory concentration against E. coli DH5α; 96-well plate, 5×10^5 CFU/mL, 37° C., judged after 8 h
How it was run: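 Log-phase DH5α (OD600 about 0.5, 37° C, 185 rpm in LB) was pelleted, resuspended in fresh LB and seeded at 5×10^5 CFU/mL with recombinant protein at 50, 25 and 12.5 μg/mL (two-fold series), in triplicate. Plates were shaken at 175 rpm, 37° C, and OD600 was read every 30 min. MIC was the lowest concentration with no growth.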

[9] = test system: Klebsiella pneumonia; assay: MIC against Gram-negative bacteria: Klebsiella pneumonia; settings: for MIC (μg/mL) K. pneumonia / MIC K. pneumonia: 5×10^5 CFU/mL
How it was run: as §1

[10] = test system: Citrobacter diversus; assay: MIC against Gram-negative bacteria: Citrobacter diversus; settings: for MIC (μg/mL) C. diversus / MIC C. diversus: 5×10^5 CFU/mL
How it was run: as §1

[11] = test system: Pseudomonas aeruginosa; assay: MIC against Gram-negative bacteria: Pseudomonas aeruginosa; settings: for MIC (μg/mL) P. aeruginosa / MIC P. aeruginosa: 5×10^5 CFU/mL
How it was run: as §1

[12] = P. vulgaris, 10 h cultivation at 37° C.
[13] = S. marcescens, 10 h cultivation at 37° C.
[14] = E. coli BL21, 10 h cultivation at 37° C.
[15] = A. hydrophila, 10 h cultivation at 37° C.
[16] = M. catarrhalis, 10 h cultivation at 37° C.
[17] = E. cloacae, 10 h cultivation at 37° C.
[18] = P. mirabilis, 10 h cultivation at 37° C.
[19] = K. pneumonia, 10 h cultivation at 37° C.
[20] = C. diversus, 10 h cultivation at 37° C.
[21] = P. aeruginosa, 10 h cultivation at 37° C.

## PRT72 (NKLDLPCPRGWWGNPVCGPCHCAVSKGFDPDCN; listed as Homo sapiens)
[1]; Proteus vulgaris, 96-well plate, 37° C., 10 h
  MIC (μg/mL) P. vulgaris: 25 µg/mL
[2]; Serratia marcescens, 96-well plate, 37° C., 10 h
  MIC (μg/mL) S. marcescens: 100 µg/mL
[3]; E. coli BL21, 96-well plate, 37° C., 10 h
  MIC (μg/mL) E. coli BL21: 12.5 µg/mL
[4]; Aeromonas hydrophila, 96-well plate, 37° C., 10 h
  MIC (μg/mL) A. hydrophila: 12.5 µg/mL
[5]; Moraxella catarrhalis, 96-well plate, 37° C., 10 h
  MIC (μg/mL) M. catarrhalis: 12.5 µg/mL
[6]; Enterobacter cloacae, 96-well plate, 37° C., 10 h
  MIC (μg/mL) E. cloacae: 25 µg/mL
[7]; Proteus mirabilis, 96-well plate, 37° C., 10 h
  MIC (μg/mL) P. mirabilis: 12.5 µg/mL
[8]
  MIC: 12.5 µg/mL
[9]; Klebsiella pneumonia, 96-well plate, 37° C., 10 h
  MIC (μg/mL) K. pneumonia: 12.5 µg/mL
[10]; Citrobacter diversus, 96-well plate, 37° C., 10 h
  MIC (μg/mL) C. diversus: 12.5 µg/mL
[11]; Pseudomonas aeruginosa, 96-well plate, 37° C., 10 h
  MIC (μg/mL) P. aeruginosa: 25 µg/mL

## PRT664 (DINECLTLGLCKDAECVNTRGSYLCTCRPGLMLDPSRSRCV; listed as Homo sapiens)
[1]; 96-well plate, 37° C., 10 h
  MIC P. vulgaris: 12.5 µg/mL
[2]; 96-well plate, 37° C., 10 h
  MIC S. marcescens: 25 µg/mL
[3]; 96-well plate, 37° C., 10 h
  MIC E. coli BL21: 50 µg/mL
[4]; 96-well plate, 37° C., 10 h
  MIC A. hydrophila: 50 µg/mL
[5]; 96-well plate, 37° C., 10 h
  MIC M. catarrhalis: 25 µg/mL
[6]; 96-well plate, 37° C., 10 h
  MIC E. cloacae: 25 µg/mL
[7]; 96-well plate, 37° C., 10 h
  MIC P. mirabilis: 50 µg/mL
[8]
  MIC: 25 µg/mL
[9]; 96-well plate, 37° C., 10 h
  MIC K. pneumonia: 12.5 µg/mL
[10]; 96-well plate, 37° C., 10 h
  MIC C. diversus: 12.5 µg/mL
[11]; 96-well plate, 37° C., 10 h
  MIC P. aeruginosa: 25 µg/mL

## PRT176 (APLVCRAGCSPEHGFCEQPGECRCLEGWTGPLCT; listed as Homo sapiens)
[1]; [12]
  MIC (μg/mL) P. vulgaris: 12.5 µg/mL
[2]; [13]
  MIC (μg/mL) S. marcescens: 25 µg/mL
[3]; [14]
  MIC (μg/mL) E. coli BL21: 12.5 µg/mL
[4]; [15]
  MIC (μg/mL) A. hydrophila: 12.5 µg/mL
[5]; [16]
  MIC (μg/mL) M. catarrhalis: 50 µg/mL
[6]; [17]
  MIC (μg/mL) E. cloacae: 25 µg/mL
[7]; [18]
  MIC (μg/mL) P. mirabilis: 25 µg/mL
[8]
  MIC: 25 µg/mL
[9]; [19]
  MIC (μg/mL) K. pneumonia: 12.5 µg/mL
[10]; [20]
  MIC (μg/mL) C. diversus: 25 µg/mL
[11]; [21]
  MIC (μg/mL) P. aeruginosa: 25 µg/mL

## PRT920 (DVDECQLMPNACQNGGTCHNTHGGYNCVCVNGWTGEDCS; listed as Homo sapiens)
[1]; [12]
  MIC: 12.5 µg/mL
[2]; [13]
  MIC: 50 µg/mL
[3]; [14]
  MIC: 25 µg/mL
[4]; [15]
  MIC: 25 µg/mL
[5]; [16]
  MIC: 12.5 µg/mL
[6]; [17]
  MIC: 12.5 µg/mL
[7]; [18]
  MIC: 50 µg/mL
[8]
  MIC: 12.5 µg/mL
[9]; [19]
  MIC: 50 µg/mL
[10]; [20]
  MIC: 50 µg/mL
[11]; [21]
  MIC: 25 µg/mL

## PRT608 (CDCNGRSQECYFDPELYRSTGHGGHCTNCQDNTDGAHCERCRENFFRLGNNEACSS; listed as Homo sapiens)
[1]; 96-well plate, 37° C., 10 h
  MIC P. vulgaris: 12.5 µg/mL
[2]; 96-well plate, 37° C., 10 h
  MIC S. marcescens: 25 µg/mL
[3]; 96-well plate, 37° C., 10 h
  MIC E. coli BL21: 50 µg/mL
[4]; 96-well plate, 37° C., 10 h
  MIC A. hydrophila: 12.5 µg/mL
[5]; 96-well plate, 37° C., 10 h
  MIC M. catarrhalis: 50 µg/mL
[6]; 96-well plate, 37° C., 10 h
  MIC E. cloacae: 25 µg/mL
[7]; 96-well plate, 37° C., 10 h
  MIC P. mirabilis: 25 µg/mL
[8]
  MIC: 12.5 µg/mL
[9]; 96-well plate, 37° C., 10 h
  MIC K. pneumonia: 50 µg/mL
[10]; 96-well plate, 37° C., 10 h
  MIC C. diversus: 25 µg/mL
[11]; 96-well plate, 37° C., 10 h
  MIC P. aeruginosa: 12.5 µg/mL
